Experiments:
[1] = target: ASK1 T838 auto phosphorylation in HEK-293T cells (Homo sapiens (Human), UniProt Q99683); experiment: ASK1 (AUTO PHOS T838) assay, MSD format; type: cell-based; settings: HEK 293T cells transfected with ASK1-V5 full length plasmid, compounds 1 hr at 37° C.; read-out: IC50
GST-hASK1 = GST-hASK1 (Homo sapiens (Human), UniProt Q99683); experiment: ASK1 TR-FRET assay; type: biochemical; settings: 5 nM GST-hASK1, 100 μM ATP, 2 μM STK Substrate 3
Procedure: The protein kinase activity of 5 nM GST-hASK1(Life Technologies PV4011) was assayed with 100 μM ATP and 2 μM of HTRF biotinylated STK Substrate 3 (CisBio Kit 62ST3PEJ), at ambient temperature in 25 mM Hepes, pH 7.5, 50 mM NaCl, 10 mM MgCl2, 0.02% Brij-35, 1 mM DTT, and 1% DMSO.
After a 10 minute pre-incubation, ASK1 protein kinase activity was initiated by addition of 10 μL of 300 μM ATP.

ASK1/MAP3K5 = ASK1/MAP3K5 (Homo sapiens (Human), UniProt Q99683); experiment: ASK1/MAP3K5 assay by Reaction Biology Corp.; type: biochemical; settings: 20 μM myelin basic protein (MBP), 10 μM ATP
Chain of ASK1/MAP3K5 (Q99683 whole entry): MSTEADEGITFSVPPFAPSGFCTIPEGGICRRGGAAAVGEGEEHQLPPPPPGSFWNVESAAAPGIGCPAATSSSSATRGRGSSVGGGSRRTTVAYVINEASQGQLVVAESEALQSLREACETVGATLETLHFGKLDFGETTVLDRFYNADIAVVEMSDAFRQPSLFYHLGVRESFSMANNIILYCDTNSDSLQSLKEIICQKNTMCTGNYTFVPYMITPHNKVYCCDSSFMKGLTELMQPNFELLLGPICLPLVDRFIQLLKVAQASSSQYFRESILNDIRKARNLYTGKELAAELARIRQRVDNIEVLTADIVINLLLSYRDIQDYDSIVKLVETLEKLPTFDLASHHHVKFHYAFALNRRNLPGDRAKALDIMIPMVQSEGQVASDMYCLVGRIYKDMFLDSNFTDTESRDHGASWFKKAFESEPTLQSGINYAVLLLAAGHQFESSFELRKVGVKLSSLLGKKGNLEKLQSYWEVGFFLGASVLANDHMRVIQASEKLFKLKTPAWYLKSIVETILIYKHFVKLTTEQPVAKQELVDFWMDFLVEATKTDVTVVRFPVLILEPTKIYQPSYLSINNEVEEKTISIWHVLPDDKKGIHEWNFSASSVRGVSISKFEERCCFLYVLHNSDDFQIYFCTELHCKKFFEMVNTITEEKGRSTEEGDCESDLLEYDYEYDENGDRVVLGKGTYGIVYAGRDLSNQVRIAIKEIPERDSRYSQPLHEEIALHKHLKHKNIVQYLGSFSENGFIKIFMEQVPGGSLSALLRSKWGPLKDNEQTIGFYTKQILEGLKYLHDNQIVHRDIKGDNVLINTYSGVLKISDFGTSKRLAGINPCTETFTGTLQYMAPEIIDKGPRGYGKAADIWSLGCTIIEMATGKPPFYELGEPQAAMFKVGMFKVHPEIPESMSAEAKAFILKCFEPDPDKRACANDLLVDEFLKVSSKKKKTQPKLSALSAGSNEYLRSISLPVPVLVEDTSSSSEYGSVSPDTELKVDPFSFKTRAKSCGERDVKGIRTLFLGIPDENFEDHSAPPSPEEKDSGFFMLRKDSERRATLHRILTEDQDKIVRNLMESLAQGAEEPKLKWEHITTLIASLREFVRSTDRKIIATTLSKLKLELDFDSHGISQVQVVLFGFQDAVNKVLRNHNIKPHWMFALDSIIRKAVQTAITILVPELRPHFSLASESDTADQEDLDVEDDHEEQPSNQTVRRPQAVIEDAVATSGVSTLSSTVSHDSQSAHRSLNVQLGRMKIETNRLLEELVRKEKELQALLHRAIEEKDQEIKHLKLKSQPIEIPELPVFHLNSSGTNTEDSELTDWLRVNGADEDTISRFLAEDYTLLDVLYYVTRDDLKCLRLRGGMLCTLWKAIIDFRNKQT
Procedure: ASK1/MAP3K5 was used as the protein kinase and 20 μM of myelin basic protein (MBP) and 10 μM ATP were used as the substrate.

Chain of ASK1 T838 auto phosphorylation in HEK-293T cells (Q99683 whole entry): as above
Chain of GST-hASK1 (Q99683 649-946): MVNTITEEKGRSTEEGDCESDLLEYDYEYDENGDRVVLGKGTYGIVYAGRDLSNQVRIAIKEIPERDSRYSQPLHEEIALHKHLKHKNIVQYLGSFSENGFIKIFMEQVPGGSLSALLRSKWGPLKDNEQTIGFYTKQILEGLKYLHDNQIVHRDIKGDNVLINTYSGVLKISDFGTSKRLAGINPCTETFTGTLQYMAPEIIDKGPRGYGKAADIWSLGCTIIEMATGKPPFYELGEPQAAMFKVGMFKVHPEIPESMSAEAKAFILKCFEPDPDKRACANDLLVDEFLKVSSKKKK

| IC50 [1] [nM] | IC50 (GST-hASK1) [nM] | IC50 (GST-hASK1; class given in words) [nM] | IC50 (ASK1/MAP3K5) [nM] | Compound |
| --- | --- | --- | --- | --- |
| < 1000 | < 100 |  |  | O=C1Nc2cccc(n2)-c2nncn2CCCCOc2ccc(N3CC4CCC(C3)O4)cc21 [Example 7, 5^5-(8-Oxa-3-azabicyclo[3.2.1]octan-3-yl)-1^4H-6-oxa-3-aza-2(2,6)-pyridina-1(3,4)-triazola-5(1,2)-benzenacyclodecaphan-4-one] |
| < 1000 | < 100 |  |  | CCN1CCN(c2ccc3c(c2)C(=O)Nc2cccc(n2)-c2nncn2CCCCO3)CC1 [Example 13, 5^5-(4-Ethylpiperazin-1-yl)-1^4H-6-oxa-3-aza-2(2,6)-pyridina-1(3,4)-triazola-5(1,2)-benzenacyclodecaphan-4-one] |
| < 1000 | < 100 |  |  | O=C1Nc2cccc(n2)-c2nncn2CCCCOc2ccc(C3=CCOC3)cc21 [Example 14, 5^5-(2,5-Dihydrofuran-3-yl)-1^4H-6-oxa-3-aza-2(2,6)-pyridina-1(3,4)-triazola-5(1,2)-benzenacyclodecaphan-4-one] |
| < 1000 | < 100 |  |  | O=C1Nc2cccc(n2)-c2nncn2CCCCOc2ccc(C3=CCOCC3)cc21 [Example 16, 5^5-(3,6-Dihydro-2H-pyran-4-yl)-1^4H-6-oxa-3-aza-2(2,6)-pyridina-1(3,4)-triazola-5(1,2)-benzenacyclodecaphan-4-one] |
| < 1000 | < 100 |  |  | C=Cc1ccc2c(c1)C(=O)Nc1cccc(n1)-c1nncn1CCCCO2 [Example 19, 5^5-Vinyl-1^4H-6-oxa-3-aza-2(2,6)-pyridina-1(3,4)-triazola-5(1,2)-benzenacyclodecaphan-4-one] |
| 1000 to 10000 | < 100 |  |  | Cn1cc(-c2ccc3c(c2)C(=O)Nc2cccc(n2)-c2nncn2CCCCO3)nn1 [Example 30, 5^5-(1-Methyl-1H-1,2,3-triazol-4-yl)-1^4H-6-oxa-3-aza-2(2,6)-pyridina-1(3,4)-triazola-5(1,2)-benzenacyclodecaphan-4-one] |
|  | 100 to 1000 |  |  | O=C1Nc2cccc(n2)-c2nncn2CCCCOc2ccc(C(=O)N3CCCC3)cc21 [Example 31, 5^5-(Pyrrolidine-1-carbonyl)-1^4H-6-oxa-3-aza-2(2,6)-pyridina-1(3,4)-triazola-5(1,2)-benzenacyclodecaphan-4-one] |
| 1000 to 10000 | 100 to 1000 |  |  | C[C@@H]1CCCOc2ccc(-c3cnn(C)c3)cc2C(=O)Nc2cccc(n2)-c2nncn21 [Example 95, (R)-10-Methyl-5^5-(1-methyl-1H-pyrazol-4-yl)-1^4H-6-oxa-3-aza-2(2,6)-pyridina-1(3,4)-triazola-5(1,2)-benzenacyclodecaphan-4-one] |
| > 10000 |  | ≥ 10000 |  | CN1C(=O)c2cc(Br)ccc2OCCCCn2cnnc2-c2cccc1n2 [Example 152, 5^5-Bromo-3-methyl-1^4H-6-oxa-3-aza-2(2,6)-pyridina-1(3,4)-triazola-5(1,2)-benzenacyclodecaphan-4-one] |
| < 1000 | < 100 |  |  | O=C1Nc2cccc(n2)-c2nncn2CCCCOc2cc(C(F)(F)F)ccc21 [Example 153, 5^4-(Trifluoromethyl)-1^4H-6-oxa-3-aza-2(2,6)-pyridina-1(3,4)-triazola-5(1,2)-benzenacyclodecaphan-4-one] |
| 1000 to 10000 | 100 to 1000 |  |  | O=C1Nc2cccc(n2)-c2nncn2C/C=C/COc2cc(C(F)(F)F)ccc21 [Example 154, (E)-5^4-(Trifluoromethyl)-1^4H-6-oxa-3-aza-2(2,6)-pyridina-1(3,4)-triazola-5(1,2)-benzenacyclodecaphan-8-en-4-one] |
| 1000 to 10000 | 100 to 1000 |  |  | O=C1Nc2cccc(n2)-c2nncn2C/C=C\COc2cc(C(F)(F)F)ccc21 [Example 155, (Z)-5^4-(Trifluoromethyl)-1^4H-6-oxa-3-aza-2(2,6)-pyridina-1(3,4)-triazola-5(1,2)-benzenacyclodecaphan-8-en-4-one] |
| 1000 to 10000 | 100 to 1000 |  |  | O=C1Nc2cccc(n2)-c2nncn2C/C=C/COc2cc(F)ccc21 [Example 157, (E)-5^4-Fluoro-1^4H-6-oxa-3-aza-2(2,6)-pyridina-1(3,4)-triazola-5(1,2)-benzenacyclodecaphan-8-en-4-one] |
| 1000 to 10000 | 100 to 1000 |  |  | O=C1Nc2cccc(n2)-c2nncn2C/C=C/COc2ccc(F)cc21 [Example 158, (E)-5^5-Fluoro-1^4H-6-oxa-3-aza-2(2,6)-pyridina-1(3,4)-triazola-5(1,2)-benzenacyclodecaphan-8-en-4-one] |
| < 1000 | < 100 |  |  | O=C1Nc2cccc(n2)-c2nncn2C/C=C\COc2ccc(F)cc21 [Example 159, (Z)-5^5-Fluoro-1^4H-6-oxa-3-aza-2(2,6)-pyridina-1(3,4)-triazola-5(1,2)-benzenacyclodecaphan-8-en-4-one] |
| < 1000 |  |  | < 100 | CN(C)CCn1cc(-c2cc3c(cc2F)OCC/C=C/Cn2cnnc2-c2cccc(n2)NC3=O)cn1 [Example 178, (E)-5^5-(1-(2-(Dimethylamino)ethyl)-1H-pyrazol-4-yl)-5^4-fluoro-1^4H-6-oxa-3-aza-2(2,6)-pyridina-1(3,4)-triazola-5(1,2)-benzenacycloundecaphan-9-en-4-one] |
| < 1000 |  |  | < 100 | CN(C)CCn1cc(-c2cc3c(cc2F)OCC/C=C\Cn2cnnc2-c2cccc(n2)NC3=O)cn1 [Example 179, (Z)-5^5-(1-(2-(Dimethylamino)ethyl)-1H-pyrazol-4-yl)-5^4-fluoro-1^4H-6-oxa-3-aza-2(2,6)-pyridina-1(3,4)-triazola-5(1,2)-benzenacycloundecaphan-9-en-4-one] |
| < 1000 |  |  | < 100 | O=C1Nc2cccc(n2)-c2nncn2C/C=C\CCOc2cc(F)c(-c3ccncc3)cc21 [Example 180, (Z)-5^4-Fluoro-5^5-(pyridin-4-yl)-1^4H-6-oxa-3-aza-2(2,6)-pyridina-1(3,4)-triazola-5(1,2)-benzenacycloundecaphan-9-en-4-one] |
| < 1000 |  |  | < 100 | O=C1Nc2cccc(n2)-c2nncn2C/C=C\CCOc2cc(F)c(N3CCOCC3)cc21 [Example 181, (Z)-5^4-Fluoro-5^5-morpholino-1^4H-6-oxa-3-aza-2(2,6)-pyridina-1(3,4)-triazola-5(1,2)-benzenacycloundecaphan-9-en-4-one] |
|  | 1000 to 10000 |  |  | O=C1Nc2cccc(n2)-c2nncn2CCCOc2ccc(Br)cc21 [Example 183, 5^5-Bromo-1^4H-6-oxa-3-aza-2(2,6)-pyridina-1(3,4)-triazola-5(1,2)-benzenacyclononaphan-4-one] |
|  | 100 to 1000 |  |  | O=C1Nc2cccc(n2)-c2nncn2CCCOc2ccc(N3CCOCC3)cc21 [Example 184, 5^5-Morpholino-1^4H-6-oxa-3-aza-2(2,6)-pyridina-1(3,4)-triazola-5(1,2)-benzenacyclononaphan-4-one] |
| > 10000 |  |  | 1000 to 10000 | (R)-5^4-Bromo-10-methyl-1^4H-6-oxa-3-aza-2(2,6)-pyridina-1(3,4)-triazola-5(1,2)-benzenacyclodecaphan-4-one [Example 121] |
| < 1000 |  |  | < 100 | (S)-5^4-Bromo-10-methyl-1^4H-6-oxa-3-aza-2(2,6)-pyridina-1(3,4)-triazola-5(1,2)-benzenacyclodecaphan-4-one [Example 120] |

| Compound | IC50 [1] [nM] | IC50 (GST-hASK1) [nM] | IC50 (GST-hASK1; class given in words) [nM] | IC50 (ASK1/MAP3K5) [nM] |
| --- | --- | --- | --- | --- |
| O=C1Nc2cccc(n2)-c2nncn2CCCCCOc2ccc(Br)cc21 [Example 170, 5^5-Bromo-1^4H-6-oxa-3-aza-2(2,6)-pyridina-1(3,4)-triazola-5(1,2)-benzenacycloundecaphan-4-one] |  | < 100 |  |  |
